Test results published in PubChem BioAssay AID248 (DTP/NCI, 2004).
“And” between values parts separate entries of the source, which are not always exact repeats. Equal values may be shown once. Toxic doses and inconclusive results are not listed. Rule as the data show it: active = T/C of 150% or more; inactive = T/C below 125%.

System: L1210 leukemia ip in BDF1 mice, survival T/C
Assay: NCI In Vivo Anticancer Drug Screen. Data for tumor model L1210 Leukemia (intraperitoneal) in B6D2F1 (BDF1) mice
Conditions: endpoint: mean survival time, higher = longer survival
Method in brief: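 Each compound was tested against a transplantable tumor grown in mice. The endpoint was survival, with treated animals benchmarked against vehicle controls as a simple ratio.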

[1] = dose: 100.0 mg/kg/injection, schedule: Q04DX002 (ip), vehicle: saline with Tween-80
[2] = dose: 100.0 mg/kg/injection, schedule: Q04DX003 (ip), vehicle: saline with Tween-80
[3] = dose: 200.0 mg/kg/injection, schedule: Q04DX002 (ip), vehicle: saline with Tween-80
[4] = dose: 200.0 mg/kg/injection, schedule: Q04DX003 (ip), vehicle: saline with Tween-80
[5] = dose: 400.0 mg/kg/injection, schedule: Q04DX002 (ip), vehicle: saline with Tween-80
[6] = dose: 400.0 mg/kg/injection, schedule: Q04DX003 (ip), vehicle: saline with Tween-80
[7] = dose: 100.0 mg/kg/injection, schedule: Q01DX001 (ip), vehicle: acetone
[8] = dose: 100.0 mg/kg/injection, schedule: Q04DX003 (ip), vehicle: Klucel (hydroxypropylcellulose) (HPC)
[9] = dose: 200.0 mg/kg/injection, schedule: Q04DX003 (ip), vehicle: Klucel (hydroxypropylcellulose) (HPC)
[10] = dose: 400.0 mg/kg/injection, schedule: Q04DX003 (ip), vehicle: Klucel (hydroxypropylcellulose) (HPC)
[11] = dose: 100.0 mg/kg/injection, schedule: Q01DX009 (ip), vehicle: Klucel (hydroxypropylcellulose) (HPC)
[12] = dose: 100.0 mg/kg/injection, schedule: Q04DX002 (ip), vehicle: Klucel (hydroxypropylcellulose) (HPC)
[13] = dose: 200.0 mg/kg/injection, schedule: Q01DX009 (ip), vehicle: Klucel (hydroxypropylcellulose) (HPC)
[14] = dose: 200.0 mg/kg/injection, schedule: Q04DX002 (ip), vehicle: Klucel (hydroxypropylcellulose) (HPC)
[15] = dose: 400.0 mg/kg/injection, schedule: Q01DX009 (ip), vehicle: Klucel (hydroxypropylcellulose) (HPC)
[16] = dose: 400.0 mg/kg/injection, schedule: Q04DX002 (ip), vehicle: Klucel (hydroxypropylcellulose) (HPC)
[17] = dose: 100.0 mg/kg/injection, schedule: Q01DX001 (ip), vehicle: Klucel (hydroxypropylcellulose) (HPC)
[18] = dose: 100.0 mg/kg/injection, schedule: Q01DX009 (ip), vehicle: saline with Tween-80
[19] = dose: 200.0 mg/kg/injection, schedule: Q01DX009 (ip), vehicle: saline with Tween-80
[20] = dose: 400.0 mg/kg/injection, schedule: Q01DX009 (ip), vehicle: saline with Tween-80
[21] = dose: 100.0 mg/kg/injection, schedule: Q01DX009 (ip), vehicle: saline
[22] = dose: 100.0 mg/kg/injection, schedule: Q04DX003 (ip), vehicle: saline
[23] = dose: 200.0 mg/kg/injection, schedule: Q01DX009 (ip), vehicle: saline
[24] = dose: 200.0 mg/kg/injection, schedule: Q04DX003 (ip), vehicle: saline
[25] = dose: 400.0 mg/kg/injection, schedule: Q01DX009 (ip), vehicle: saline
[26] = dose: 400.0 mg/kg/injection, schedule: Q04DX003 (ip), vehicle: saline
[27] = dose: 200.0 mg/kg/injection, schedule: Q01DX001 (ip), vehicle: Klucel (hydroxypropylcellulose) (HPC)
[28] = dose: 400.0 mg/kg/injection, schedule: Q01DX001 (ip), vehicle: Klucel (hydroxypropylcellulose) (HPC)

Measured: T/C

COc1ccc(-c2sc(/N=C/c3ccc(N(C)CCC#N)cc3)c(C#N)c2C)cc1OC
inactive: dose: 100.0 mg/kg/injection, schedule: Q01DX001 (ip), vehicle: saline with Tween-80 100 % of control | [1] 103 % of control and 118 % of control | [2] 102 % of control and 91 % of control | dose: 200.0 mg/kg/injection, schedule: Q01DX001 (ip), vehicle: saline with Tween-80 91 % of control | [3] 93 % of control and 96 % of control | [4] 95 % of control and 98 % of control | dose: 400.0 mg/kg/injection, schedule: Q01DX001 (ip), vehicle: saline with Tween-80 100 % of control | [5] 104 % of control and 106 % of control | [6] 102 % of control and 91 % of control

CCOC(=O)C12CCC(CC1)C(C(=O)O)C2C(=O)O (stereo unspecified)
inactive: dose: 75.0 mg/kg/injection, schedule: Q04DX002 (ip), vehicle: saline with Tween-80 99 % of control | dose: 150.0 mg/kg/injection, schedule: Q04DX002 (ip), vehicle: saline with Tween-80 89 % of control | dose: 300.0 mg/kg/injection, schedule: Q04DX002 (ip), vehicle: saline with Tween-80 92 % of control

CCCCSc1n[nH]c(=O)nc1SC
inactive: [7] 104 % of control

S=c1cccc[nH]1
inactive: [8] 101 % of control | [9] 102 % of control | [10] 96 % of control

Cc1cc(O)c(C(C)C)cc1C1=NCC(C)S1 (stereo unspecified)
inactive: dose: 100.0 mg/kg/injection, schedule: Q01DX005 (ip), vehicle: Klucel (hydroxypropylcellulose) (HPC) 93 % of control | [11] 102 % of control | [12] 100 % of control | dose: 200.0 mg/kg/injection, schedule: Q01DX005 (ip), vehicle: Klucel (hydroxypropylcellulose) (HPC) 90 % of control | [13] 102 % of control | [14] 104 % of control | dose: 400.0 mg/kg/injection, schedule: Q01DX005 (ip), vehicle: Klucel (hydroxypropylcellulose) (HPC) 97 % of control | [15] 87 % of control | [16] 107 % of control

O=S(N=C(C(F)(F)F)C(F)(F)F)C(F)(F)F (stereo unspecified)
inactive: dose: 50.0 mg/kg/injection, schedule: Q01DX001 (ip), vehicle: Klucel (hydroxypropylcellulose) (HPC) 92 % of control | [17] 106 % of control

CC(O)CN(CCN(CC(C)O)CC(C)O)CCN(CC(C)O)CC(C)O.O=S(=O)([O-])[O-].[Cu+2] (stereo unspecified)
inactive: dose: 5.0 mg/kg/injection, schedule: Q01DX001 (ip), vehicle: saline 102 % of control | dose: 10.0 mg/kg/injection, schedule: Q01DX001 (ip), vehicle: saline 91 % of control

COC1CCC(C2=NC3CCCCC3SC2)CC1 (stereo unspecified)
inactive: dose: 100.0 mg/kg/injection, schedule: Q04DX002 (sc), vehicle: olive oil, sesame oil, peanut oil 97 % of control | dose: 200.0 mg/kg/injection, schedule: Q04DX002 (sc), vehicle: olive oil, sesame oil, peanut oil 107 % of control | dose: 400.0 mg/kg/injection, schedule: Q04DX002 (sc), vehicle: olive oil, sesame oil, peanut oil 100 % of control

Cc1cc(C(=O)O)c2cccc(C(F)(F)F)c2n1
inactive: [18] 112 % of control | [2] 111 % of control | [19] 103 % of control | [4] 114 % of control | [20] 101 % of control | [6] 103 % of control

CCCCc1c(C)nc(N)[nH]c1=O
inactive: [12] 104 % of control | [14] 100 % of control | [16] 100 % of control

Cc1cc([N+](=O)[O-])c(C)c([N+](=O)[O-])c1Cl
inactive: [7] 101 % of control | [21] 90 % of control | [22] 95 % of control | dose: 200.0 mg/kg/injection, schedule: Q01DX001 (ip), vehicle: acetone 97 % of control | [23] 95 % of control | [24] 103 % of control | dose: 400.0 mg/kg/injection, schedule: Q01DX001 (ip), vehicle: acetone 95 % of control | [25] 88 % of control | [26] 98 % of control

Cc1cc(=O)oc2cc(OCc3ccccc3)cc(O)c12
inactive: dose: 75.0 mg/kg/injection, schedule: Q01DX001 (ip), vehicle: other 103 % of control | dose: 150.0 mg/kg/injection, schedule: Q01DX001 (ip), vehicle: other 108 % of control | dose: 300.0 mg/kg/injection, schedule: Q01DX001 (ip), vehicle: other 108 % of control

Cc1ccc(Cl)c(NC(=O)c2ccccc2Cl)c1
inactive: [12] 97 % of control | [14] 97 % of control | [16] 104 % of control

CC(=O)C1OC1(C)C (stereo unspecified)
inactive: dose: 100.0 mg/kg/injection, schedule: Q01DX001 (ip), vehicle: saline 108 % of control | [21] 105 % of control | [22] 108 % of control | dose: 200.0 mg/kg/injection, schedule: Q01DX001 (ip), vehicle: saline 103 % of control | [23] 104 % of control | [24] 102 % of control | dose: 400.0 mg/kg/injection, schedule: Q01DX001 (ip), vehicle: saline 104 % of control | [25] 104 % of control | [26] 102 % of control

CC(=O)OCC(=O)c1cc(C)n(C)c(=O)c1CN1C(=O)c2ccccc2C1=O
inactive: [18] 107 % of control | [2] 97 % of control | [19] 102 % of control | [4] 96 % of control | [20] 108 % of control | [6] 96 % of control

Cc1ccc(S(=O)(=O)NC(=O)Nc2cc(Cl)c(Cl)cc2C)cc1
inactive: dose: 50.0 mg/kg/injection, schedule: Q01DX009 (ip), vehicle: saline 100 % of control and 108 % of control | [18] 94 % of control and 91 % of control | [21] 97 % of control and 88 % of control | [1] 100 % of control and 110 % of control | [19] 93 % of control | [23] 94 % of control and 86 % of control | [3] 93 % of control and 96 % of control | [25] 93 % of control | [5] 100 % of control and 104 % of control

c1ccc(Cc2[nH]nc(-c3ccccc3)c2N=Nc2ccccc2)cc1
inactive: [17] 94 % of control | [8] 103 % of control | [27] 94 % of control | [9] 103 % of control | [28] 91 % of control | [10] 100 % of control

O=C(CCO)Nc1cccc(Cl)c1
inactive: [17] 98 % of control | [11] 93 % of control | [27] 101 % of control | [13] 88 % of control | [28] 91 % of control | [15] 92 % of control

O=C(Nc1ccc(C(=O)O)cc1)Nc1cccc(F)c1
inactive: dose: 50.0 mg/kg/injection, schedule: Q01DX009 (ip), vehicle: Klucel (hydroxypropylcellulose) (HPC) 102 % of control | [11] 111 % of control | [12] 95 % of control | [14] 98 % of control
